Where two headings read alike, the source gives them in different places. Each block holds one molecule with its values, some of them ahead of it.
Columns and labels:
S. aureus 43300 (MRSA) = assay: Antibiotic repotentiation (antibiotic MIC with/without compound); assay type: cell-based, Staphylococcus aureus
Description: (§1) The overnight culture was diluted into fresh CAMHB to a concentration of 5×10^5 CFU/ml. […] On the same plate, a standard microdilution MIC with the tested antibiotics and no added compound was also performed to compare the antibiotic MIC in the presence and absence of compound. […] Fold reductions were calculated by dividing the MIC of the antibiotic without compound by the MIC of the antibiotic in the presence of compound.
(§2) The compounds were then analyzed for antibiotic repotentiation activity. […] The tested strains included USA300, which is a common and particularly virulent strain of community-acquired MRSA.

S. aureus USA300 (MRSA) [1] = assay: as above; assay type: cell-based, Staphylococcus aureus; conditions: for MIC of antibiotic: MRSA USA300; for Oxacillin MIC / Fold Reduction: +50 μM compound, S. aureus USA300 (MRSA); for Fold Reduction: oxacillin MIC
Description: as §1, §2

[2] = test system: S. aureus NR-49120 (VRSA); assay: as above; assay type: cell-based, Staphylococcus aureus; conditions: VRSA NR-49120; for Fold Reduction: antibiotic MIC
Description: as §1

S. aureus USA100 (MRSA) [3] = assay: as above; assay type: cell-based, Staphylococcus aureus
Description: as §1

S. aureus ATCC 29213 = assay: Minimum inhibitory concentration, broth microdilution; assay type: cell-based; conditions: Staphylococcus aureus, ATCC29213; compound alone; S. aureus ATCC 29213; CAMHB, 18 h; read-out: MIC
Description: as §2

[4] = test system: S. aureus ATCC 43300 (MRSA); assay: as above; assay type: cell-based, Staphylococcus aureus; conditions: compound alone, S. aureus ATCC 43300 (MRSA), CAMHB, 18 h, read-out: MIC
Description: as §2

S. aureus USA300 (MRSA) [5] = assay: as above; assay type: cell-based, Staphylococcus aureus; conditions: compound alone, S. aureus USA300 (MRSA), CAMHB, 18 h, read-out: MIC
Description: as §2

S. epidermidis 49461 = assay: Antibiotic repotentiation (oxacillin MIC with/without compound); assay type: cell-based, Staphylococcus epidermidis; conditions: +75 μM compound; S. epidermidis 49461
Description: as §1
Antibiotic potentiation in S. epidermidis was also investigated.

MRSA 43300 biofilm = assay: Biofilm inhibition, crystal violet assay; assay type: cell-based, Staphylococcus aureus; conditions: 30 h
Description: (§3) A standard static crystal violet assay was used to quantify biofilm inhibition.^45 Cultures of S. aureus or S. epidermidis were grown overnight in TSBG (tryptic soy broth with 5% glucose) at 37° C. with shaking. These cultures were used to inoculate fresh TSBG to a calculated optical density of 0.01 at 600 nm (OD600). […] Untreated aliquots were used as a positive control and water served as a negative control. 100 μl of these suspensions were added to the wells of a 96-well polyvinylchloride microtiter plate. […] After incubation, media was discarded and the plates were washed with water to remove non-adherent cells. Adherent biofilms were stained with 110 μl of crystal violet (0.1% in water) and incubated at room temperature for thirty minutes. The crystal violet staining solution was discarded and plates were washed with water to remove excess stain. The resulting stained biofilms were solubilized with 200 μL of 95% ethanol for 10 minutes. 125 μl of the ethanol solutions were transferred to a clear polystyrene microtiter plate for evaluation. Absorbance at 540 nm was recorded using a BioTek Synergy H1 microplate reader. The absorbance of the negative control lanes was subtracted from the experimental values to account for background staining. Percent inhibition was calculated by comparison of the absorbance values of control versus treated wells under identical conditions.
Antibiotic resistance and biofilm formation share similar regulatory mechanisms. […] Biofilm inhibition was first assessed in S. aureus 43300, a methicillin-resistant strain (see Table 18). As described in Materials and Methods, a standard crystal violet assay was used to assess biofilm inhibition by the tested compounds. The IC50 is described as the compound concentration required to inhibit 50% of biofilm formation. The standard deviation is calculated from at least 3 independent experiments.

[6] = test system: S. epidermidis ATCC 49461 biofilm; assay: Biofilm inhibition, crystal violet assay; assay type: cell-based, Staphylococcus epidermidis; conditions: 30 h, read-out: Inhibition of biofilm formation IC50
Description: as §3

S. aureus USA100 (MRSA) [7] = assay: microbe, parasite or virus in culture; assay type: cell-based, Staphylococcus aureus; conditions: compound alone, CAMHB, 18 h
[8] = oxacillin MIC, +50 μM compound, S. aureus 43300 (MRSA)
[9] = +50 μM compound, S. aureus 43300 (MRSA)
[10] = +50 μM compound, S. aureus USA100 (MRSA)
[11] = oxacillin MIC, +50 μM compound, S. aureus USA100 (MRSA)

- MIC (S. aureus ATCC 29213): 1200 µM
- MIC ([4]; Staphylococcus aureus): 600 µM
- MIC (S. aureus USA300 (MRSA) [5]; Staphylococcus aureus): 600 µM
- Oxacillin MIC (S. epidermidis 49461): 16 µg/mL
SMILES: CN1CCN(C2=Nc3cc(Cl)ccc3Nc3ccccc32)CC1 [Clozapine, 8-chloro-11-(4-methyl-1-piperazinyl)-5H-dibenzo[b,e][1,4]diazepine, reference compound]

- IC50 (MRSA 43300 biofilm; Staphylococcus aureus, MRSA): 18.7 µM
SMILES: Clc1ccc2c(c1)Nc1ccccc1CC2 [Compound I-5, 3-chloro-10,11-dihydro-5H-dibenzo[b,f]azepine]
- Fold Reduction (S. aureus 43300 (MRSA); [8]): 16

- MIC [4]: 125 µM
- Oxacillin MIC (S. aureus 43300 (MRSA); +31.25 μM compound, S. aureus 43300 (MRSA)): 4 µg/mL
- IC50 (MRSA 43300 biofilm): 184 µM
- IC50 [6]: 57.1 µM
SMILES: Clc1cc2cccnc2c2ncccc12 [Compound V-6]
- Fold Reduction (S. aureus 43300 (MRSA); oxacillin MIC, +31.25 μM compound, S. aureus 43300 (MRSA)): 8

The remaining lines, values behind:

SMILES: Cc1nnc(SCC2=C(C(=O)O)N3C(=O)[C@@H](NC(=O)Cn4cnnn4)[C@H]3SC2)s1 [Cefazolin]
- MIC of antibiotic (S. aureus 43300 (MRSA); +Amoxapine (150 μM), S. aureus 43300 (MRSA)): 0.5 µg/mL
- MIC of antibiotic (S. aureus 43300 (MRSA); +Loratadine 25 μM, MRSA 43300): 16 µg/mL
- MIC of antibiotic (S. aureus 43300 (MRSA); +Loratadine 50 μM, MRSA 43300): 1 µg/mL
- Fold Reduction (S. aureus 43300 (MRSA); antibiotic MIC, +Amoxapine (150 μM), S. aureus 43300 (MRSA)): 32
- Fold Reduction (S. aureus 43300 (MRSA); antibiotic MIC, +Loratadine 25 μM, MRSA 43300): 4
- Fold Reduction (S. aureus 43300 (MRSA); antibiotic MIC, +Loratadine 50 μM, MRSA 43300): 64
- MIC of antibiotic (S. aureus 43300 (MRSA); antibiotic alone, no compound, S. aureus 43300 (MRSA)): 16 µg/mL
- MIC of antibiotic (S. aureus 43300 (MRSA); antibiotic alone, S. aureus ATCC 43300 (MRSA)): 64 µg/mL
- MIC of antibiotic (S. aureus USA300 (MRSA) [1]; +Loratadine 25 μM): 4 µg/mL
- MIC of antibiotic (S. aureus USA300 (MRSA) [1]; +Loratadine 50 μM): 1 µg/mL
- MIC of antibiotic (S. aureus USA300 (MRSA) [1]; antibiotic alone): 32 µg/mL
- MIC of antibiotic ([2]; +Loratadine 25 μM): 32 µg/mL
- MIC of antibiotic ([2]; +Loratadine 50 μM): 8 µg/mL
- Fold Reduction ([2]; +Loratadine 25 μM): 4
- Fold Reduction ([2]; +Loratadine 50 μM): 16
- MIC of antibiotic ([2]; antibiotic alone): 128 µg/mL
- MIC of antibiotic (S. aureus USA100 (MRSA) [3]; +Loratadine 25 μM, MRSA USA100): 128 µg/mL
- MIC of antibiotic (S. aureus USA100 (MRSA) [3]; +Loratadine 50 μM, MRSA USA100): 1 µg/mL
- Fold Reduction (S. aureus USA100 (MRSA) [3]; antibiotic MIC, +Loratadine 25 μM, MRSA USA100): 2
- Fold Reduction (S. aureus USA100 (MRSA) [3]; antibiotic MIC, +Loratadine 50 μM, MRSA USA100): 256
- MIC of antibiotic (S. aureus USA100 (MRSA) [3]; antibiotic alone, MRSA USA100): 256 µg/mL

SMILES: c1ccc2c(c1)[nH]c1ccccc12 [IV-1]
- MIC [4]: >200 µM
- MIC (S. aureus USA300 (MRSA) [5]): >200 µM
- MIC (S. aureus USA100 (MRSA) [7]): >200 µM
- Oxacillin MIC (S. aureus 43300 (MRSA); [9]): 32 µg/mL
- Fold Reduction (S. aureus 43300 (MRSA); [8]): 1
- Oxacillin MIC (S. aureus USA300 (MRSA) [1]): 64 µg/mL
- Fold Reduction (S. aureus USA300 (MRSA) [1]): 1
- Oxacillin MIC (S. aureus USA100 (MRSA) [3]; [10]): 512 µg/mL
- Fold Reduction (S. aureus USA100 (MRSA) [3]; [11]): 1

SMILES: Brc1cccc2c1[nH]c1ccccc12 [IV-2]
- MIC [4]: >200 µM
- MIC (S. aureus USA300 (MRSA) [5]): >200 µM
- MIC (S. aureus USA100 (MRSA) [7]): >200 µM
- Oxacillin MIC (S. aureus 43300 (MRSA); [9]): 4 µg/mL
- Fold Reduction (S. aureus 43300 (MRSA); [8]): 8
- Oxacillin MIC (S. aureus USA300 (MRSA) [1]): 16/8
- Fold Reduction (S. aureus USA300 (MRSA) [1]): 4/8
- Oxacillin MIC (S. aureus USA100 (MRSA) [3]; [10]): 8 µg/mL
- Fold Reduction (S. aureus USA100 (MRSA) [3]; [11]): 64

Reference: patent publication US12115208B2, “Small-molecule adjuvants for antibiotics to address antibiotic resistance” (HIGH POINT UNIVERSITY, priority 2017, dated 2024)
